From patent US10195156B2, “Compounds and compositions for intracellular delivery of agents” (ModernaTX, Inc., priority 2015, dated 2019)
Each block holds one molecule with its values, some of them ahead of it.

Columns and labels:
[1] = Particle size and polydispersity index of nanoparticle compositions (Zetasizer Nano ZS); type: physicochemical; conditions: for particle size, rank within the named table (in words): comparison amongst compositions
Procedure: A Zetasizer Nano ZS (Malvern Instruments Ltd, Malvern, Worcestershire, UK) can be used to determine the particle size, the polydispersity index (PDI) and the zeta potential of the nanoparticle compositions in 1×PBS in determining particle size and 15 mM PBS in determining zeta potential.

[2] = Encapsulation efficiency of RNA (QUANT-IT RIBOGREEN RNA assay); type: physicochemical
Procedure: For nanoparticle compositions including an RNA, a QUANT-IT™ RIBOGREEN® RNA assay (Invitrogen Corporation Carlsbad, Calif.) can be used to evaluate the encapsulation of an RNA by the nanoparticle composition. The samples are diluted to a concentration of approximately 5 μg/mL in a TE buffer solution (10 mM Tris-HCl, 1 mM EDTA, pH 7.5). 50 μL of the diluted samples are transferred to a polystyrene 96 well plate and either 50 μL of TE buffer or 50 μL of a 2% Triton X-100 solution is added to the wells. The plate is incubated at a temperature of 37° C. for 15 minutes. The RIBOGREEN® reagent is diluted 1:100 in TE buffer, and 100 μL of this solution is added to each well. The fluorescence intensity can be measured using a fluorescence plate reader (Wallac Victor 1420 Multilablel Counter; Perkin Elmer, Waltham, Mass.) at an excitation wavelength of, for example, about 480 nm and an emission wavelength of, for example, about 520 nm. The fluorescence values of the reagent blank are subtracted from that of each of the samples and the percentage of free RNA is determined by dividing the fluorescence intensity of the intact sample (without addition of Triton X-100) by the fluorescence value of the disrupted sample (caused by the addition of Triton X-100).

[3] = pKa of nanoparticle compositions; type: physicochemical
[4] = system: luciferase (Luc) mRNA expression; assay: Expression of Luc induced by sample formulations, whole-body bioluminescence after intravenous administration; type: in vivo; conditions: mice, i.v., 0.5 mg/kg
Procedure: In order to monitor how effectively various nanoparticle compositions deliver therapeutic and/or prophylactic agents to targeted cells, different nanoparticle compositions including a particular therapeutic and/or prophylactic agent (for example, a modified or naturally occurring RNA such as an mRNA) are prepared and administered to rodent populations. Mice are intravenously, intramuscularly, intraarterially, or intratumorally administered a single dose including a nanoparticle composition with a formulation such as those provided in Table 1. In some instances, mice may be made to inhale doses. Dose sizes may range from 0.001 mg/kg to 10 mg/kg, where 10 mg/kg describes a dose including 10 mg of a therapeutic and/or prophylactic agent in a nanoparticle composition for each 1 kg of body mass of the mouse. A control composition including PBS may also be employed.
Upon administration of nanoparticle compositions to mice, dose delivery profiles, dose responses, and toxicity of particular formulations and doses thereof can be measured by enzyme-linked immunosorbent assays (ELISA), bioluminescent imaging, or other methods. For nanoparticle compositions including mRNA, time courses of protein expression can also be evaluated. Samples collected from the rodents for evaluation may include blood, sera, and tissue (for example, muscle tissue from the site of an intramuscular injection and internal tissue); sample collection may involve sacrifice of the animals.
The efficacy of the nanoparticle compositions presented in Tables 1, 1a, 17-1, 19-1, 20-1 and 21-1 was evaluated with a bioluminescence study. Formulations were administered intravenously to mice (n=6) at a dosage of 0.5 mg/kg (mpk) and bioluminescence measured at 3, 6, and 24 hour time points. The standard MC3 formulation and a PBS control were evaluated for comparison.

[5] = system: modified luciferase expression; assay: Expression of Luc in different organs (liver, lung, spleen, femur) 6 hours after intravenous administration; type: in vivo; conditions: i.v., 0.5 mpk
Procedure: The efficacy of the nanoparticle compositions presented in Tables 1, 1a, 17-1, 19-1, 20-1 and 21-1 was further evaluated by measuring the expression of modified luciferase in the liver, lung, spleen, and femur upon administration of a given composition. Formulations were administered intravenously to mice (n=3) at a dosage of 0.5 mpk and bioluminescence measured after 6 hours. The standard MC3 formulation and a PBS control were also tested.

[6] = system: IL-6; assay: Cytokine production induced by sample formulations: IL-6; type: in vivo; conditions: mice, i.v., 0.5 mpk, 6 hours; for IL-6: in pg/mL (unit assumed)
Description: (§1) The introduction of foreign material into a mammalian body induces an innate immune response that promotes cytokine production. Such immune responses to, for example, nanoparticle compositions including therapeutic and/or prophylactic agents, are undesirable. The induction of certain cytokines is thus measured to evaluate the […] of nanoparticle compositions. The concentrations of various cytokines in mice upon intravenous administration of nanoparticle compositions presented in Tables 1, 1a, 17-1, 19-1, 20-1 and 21-1 at a dosage of 0.5 mpk was measured at 6 hours. The standard MC3 formulation and a PBS control were also tested.

[7] = system: IP-10; assay: Cytokine production induced by sample formulations: IP-10; type: in vivo; conditions: mice, i.v., 0.5 mpk, 6 hours; for IP-10: in pg/mL (unit assumed)
Description: as §1

[8] = Table 20-1, rows without footnote mark
[9] = Table 1, rows without footnote mark
[10] = Table 1, rows without footnote mark (lipid:DOPE:cholesterol:PEG-DMG 40:20:38.5:1.5, Luc mRNA; MC3 standard formulation)

PDI ([1]; Table 19-1): 0.088 | Size (nm) ([1]; Table 19-1): 137.7 nm | particle size, rank within the named table (in words) [1]: largest particles | EE (%) ([2]; Table 19-1): 16.9% | encapsulation efficiency, rank within the named table (in words) ([2]; comparison amongst compositions): lowest encapsulation efficiency | pKa ([3]; Table 19-1): 5.89 | IL-6 ([6]; Table 19-4): 7571 | IL-6 induction, rank within the named table (in words) [6]: highest IL-6 expression | IP-10 ([7]; Table 19-4): 433 | IP-10 induction, rank or comparison with IL-6 (in words) [7]: highest IP-10 expression
Compound: CCCCC/C=C\C/C=C\CCCCCCCCN(CCCCCCCC/C=C\C/C=C\CCCCC)CCN1CCN(CCCCCCCCCCCC)CC1 [Compound 19-6, (9Z,12Z)—N-(2-(4-Dodecylpiperazin-1-yl)ethyl)-N-((9Z,12Z)-octadeca-9,12-dien-1-yl)octadeca-9,12-dien-1-amine]
Total Flux 3 hours ([4]; Table 19-2): 1.07E+07 | Total Flux 6 hours ([4]; Table 19-2): 1.27E+07 | Total Flux 24 hours ([4]; Table 19-2): 1.29E+06 | total flux / Luc expression, rank within the named table (in words) ([4]; each time point): next highest flux | Total Flux Liver ([5]; Table 19-3, mice): 3.27E+06 | Total Flux Lung ([5]; Table 19-3, mice): 1.81E+05 | Total Flux Spleen ([5]; Table 19-3, mice): 3.47E+06

PDI [1, 8]: 0.238 | Size (nm) [1, 8]: 78.6 nm | EE (%) [2, 8]: 84.7% | pKa [3, 8]: 5.78 | IL-6 ([6]; Table 20-4, formula (20-I)): 68.4 | IP-10 ([7]; Table 20-4, formula (20-I)): 900.4
Compound: CCCCCCCCCCCCN(CCCO)CCN(CCCCCCCCCCCC)CCCCCCCCCCCC [Compound 20-21, 3-((2-(Didodecylamino)ethyl)(dodecyl)amino)propan-1-ol]
Total Flux 3 hours ([4]; Table 20-2): 1.43E+09 | Total Flux 6 hours ([4]; Table 20-2): 1.02E+09 | Total Flux 24 hours ([4]; Table 20-2): 1.13E+08 | Total Flux Liver ([5]; Table 20-3, mice): 1.27E+08 | Total Flux Lung ([5]; Table 20-3, mice): 1.98E+05 | Total Flux Spleen ([5]; Table 20-3, mice): 2.20E+06

PDI [1, 8]: 0.110 | Size (nm) [1, 8]: 76.4 nm | EE (%) [2, 8]: 95.8% | pKa [3, 8]: 6.82 | IL-6 ([6]; Table 20-4, formula (20-I)): 105.8 | IP-10 ([7]; Table 20-4, formula (20-I)): 671.5
Compound: CCCCCCCCCCCCN(CCCCCCCCCCCC)CCN(CCO)CCCCCC(=O)OCCCCC [Compound 20-3, Pentyl 6-((2-(didodecylamino)ethyl)(2-hydroxyethyl)amino)hexanoate]
Total Flux 3 hours ([4]; Table 20-2): 5.35E+09 | Total Flux 6 hours ([4]; Table 20-2): 3.00E+09 | Total Flux 24 hours ([4]; Table 20-2): 6.49E+07 | Total Flux Femur ([5]; Table 20-3, mice): 1.73E+06 | Total Flux Liver ([5]; Table 20-3, mice): 4.33E+08 | Total Flux Lung ([5]; Table 20-3, mice): 6.08E+05 | Total Flux Spleen ([5]; Table 20-3, mice): 6.35E+06

PDI [1, 8]: 0.150 | Size (nm) [1, 8]: 70.1 nm | EE (%) [2, 8]: 91.1% | pKa [3, 8]: 6.31 | IL-6 ([6]; Table 20-4, formula (20-I)): 102 | IP-10 ([7]; Table 20-4, formula (20-I)): 572.7
Compound: CCCCCCCCCCCCN(CCO)CCN(CCCCCCCCC)CCCCCCCCC [Compound 20-18, 2-((2-(Dinonylamino)ethyl)(dodecyl)amino)ethan-1-ol]
Total Flux 3 hours ([4]; Table 20-2): 5.80E+09 | Total Flux 6 hours ([4]; Table 20-2): 6.48E+09 | Total Flux 24 hours ([4]; Table 20-2): 1.54E+09 | Total Flux Femur ([5]; Table 20-3, mice): 3.78E+05 | Total Flux Liver ([5]; Table 20-3, mice): 4.83E+08 | Total Flux Lung ([5]; Table 20-3, mice): 1.84E+06 | Total Flux Spleen ([5]; Table 20-3, mice): 2.36E+06

PDI [1, 8]: 0.146 | Size (nm) [1, 8]: 73.8 nm | EE (%) [2, 8]: 95.3% | pKa [3, 8]: 5.90 | IL-6 ([6]; Table 20-4, formula (20-I)): 118.6 | IP-10 ([7]; Table 20-4, formula (20-I)): 810.6
Compound: CCCCCCCCCCCCN(CCCCO)CCN(CCCCCCCCCCCC)CCCCCCCCCCCC [Compound 20-22, 4-((2-(Didodecylamino)ethyl)(dodecyl)amino)butan-1-ol]
Total Flux 3 hours ([4]; Table 20-2): 4.00E+09 | Total Flux 6 hours ([4]; Table 20-2): 3.01E+09 | Total Flux 24 hours ([4]; Table 20-2): 2.20E+08 | Total Flux Liver ([5]; Table 20-3, mice): 2.88E+08 | Total Flux Lung ([5]; Table 20-3, mice): 5.04E+05 | Total Flux Spleen ([5]; Table 20-3, mice): 1.65E+06

The next lines start with the molecule.

Compound: CCCCCCCCCCCCN(CCCCCCCCCCCC)CCN(CCCCCCCCCCCC)CCN1CCN(CCN(CCCCCC)CCCCCC)CC1 [Compound 21, N^1-(2-(4-(2-(Dihexylamino)ethyl)piperazin-1-yl)ethyl)-N^1,N^2,N^2-tridodecylethane-1,2-diamine]
PDI [1, 9]: 0.239 | Size (nm) [1, 10]: 98.3 nm | EE (%) [2, 9]: 98.6% | pKa [3, 9]: 6.29 | Total Flux 3 hours ([4]; Table 2): 1.13E+10 | Total Flux 6 hours ([4]; Table 2): 1.08E+10 | Total Flux 24 hours ([4]; Table 2): 1.18E+08 | Total Flux Liver ([5]; Table 3, mice): 1.24E+09 | Total Flux Lung ([5]; Table 3, mice): 2.51E+06 | Total Flux Spleen ([5]; Table 3, mice): 1.17E+07 | IL-6 ([6]; Table 4): 48 | IP-10 ([7]; Table 4): 652

Compound: CCCCCCCCCCCCN(CCCO)CCCCCCCCCCCC [Compound 17-12, 3-(Didodecylamino)propan-1-ol]
PDI ([1]; Table 17-1): 0.148 | Size (nm) ([1]; Table 17-1): 76.1 nm | particle size, rank within the named table (in words) [1]: smallest particles | EE (%) ([2]; Table 17-1): 95.04% | pKa ([3]; Table 17-1): 6.83 | Total Flux 3 hours ([4]; Table 17-2): 2.94E+06 | Total Flux 6 hours ([4]; Table 17-2): 2.54E+06 | Total Flux 24 hours ([4]; Table 17-2): 4.66E+05 | Total Flux Liver ([5]; Table 17-3, mice): 4.94E+05 | Total Flux Lung ([5]; Table 17-3, mice): 4.89E+04 | Total Flux Spleen ([5]; Table 17-3, mice): 7.81E+04 | IL-6 ([6]; Table 17-4): 83.1 | IP-10 ([7]; Table 17-4): 148

Compound: CCCCCCCC/C=C\CCCCCCCCN(CCCCCCCC/C=C\CCCCCCCC)CCN1CCN(CCN(CCCCCCCCCCCC)CCN(CCCCCCCCCCCC)CCCCCCCCCCCC)CC1 [Compound 28, N^1-(2-(4-(2-(Di((Z)-octadec-9-en-1-yl)amino)ethyl)piperazin-1-yl)ethyl)-N^1,N^2,N^2-tridodecylethane-1,2-diamine]
PDI [1, 9]: 0.099 | Size (nm) [1, 10]: 87.4 nm | EE (%) [2, 9]: 80.2% | pKa [3, 9]: 6.04 | Total Flux 3 hours ([4]; Table 2): 6.18E+09 | Total Flux 6 hours ([4]; Table 2): 7.28E+09 | Total Flux 24 hours ([4]; Table 2): 4.02E+08 | Total Flux Femur ([5]; Table 3, mice): 1.16E+06 | Total Flux Liver ([5]; Table 3, mice): 8.10E+08 | Total Flux Lung ([5]; Table 3, mice): 5.73E+06 | Total Flux Spleen ([5]; Table 3, mice): 5.67E+06 | IL-6 ([6]; Table 4): 73 | IP-10 ([7]; Table 4): 5364
